{"source": "patent US11590100B2", "about": "“Composition for buccal or sublingual administration of cannabis extract and methods for making same” (PANAXIA PHARMACEUTICAL INDUSTRIES LTD., priority 2017, dated 2023)", "origin": "cited, not measured here"}
{"smiles": "CCCCCc1cc(O)c2c(c1)OC(C)(C)[C@@H]1CCC(C)=C[C@@H]21", "note": "[THC, Delta-9-tetrahydrocannabinol]", "values": [{"measurement": "peak effect", "setting": "after oral administration", "value": "2 to 4", "unit": "h"}, {"measurement": "absorbed", "setting": "after single oral doses", "value": "90-95%"}, {"measurement": "administered dose reaching the systemic circulation", "setting": "oral, first pass hepatic metabolism and poor aqueous solubility", "value": "10-20%"}]}
